Consider 14 compounds from patent US7947689B2, “Substituted pyrazolo[1,5-a]pyrimidines as metabotropic glutamate receptor modulators” (Merz Pharma GmbH & Co. KGaA, priority 2006, dated 2011).

pIC50: −log10 of the molar value.

Data set [1] has as its target T1, metabotropic glutamate receptor (mGluR5) (Homo sapiens, UniProt P41594). The data set can be described thus: Cytosolic calcium studies with stably transfected cells (FLIPR, CHO-K1). The format is cell-based. Also noted: expressed in transfected cells; host or cells: CHO-K1 cells (IPTG-inducible expression). The following applies: CHO-K1 cells expressing human mGluR5; agonist L-quisqualic acid at 80% of maximal signal; negative modulation; read-out: mGluR5_FLIPR_h_CHO_NAM— IC50. On the procedure: Cytosolic Calcium Studies with Stably Transfected Cells:
Chinese hamster ovary cells (CHO-K1 cells), stably transfected for inducible expression of a human metabotropic glutamate receptor mGluR5, are seeded into black clear bottom 96 well plates at a density of 35.000 cells per well. The standard growth medium used (Dulbecco's modified Eagle Medium, DMEM plus L-proline) contains the appropriate inducer isopropyl-β-D-thiogalactopyranosid (IPTG) to achieve optimal receptor expression. One day after seeding the growth medium is exchanged for reconstituted Ca-Kit (Molecular Devices, USA) and incubated for one hour. Ca-Kit is reconstituted in an assay buffer containing 20 mM HEPES pH 7.4, glutamic-pyruvate transaminase, pyridoxal phosphate and sodium pyruvate in Hank's balanced salt solution (HBBS). Agonistic compounds to the receptor elicit increases in cytosolic calcium which can be measured as increases in fluorescence signals by use of a fluorescence imaging plate reader (Molecular Devices).
(§1) The fluorescence signal increase after addition of agonist reflects the increase of cytosolic calcium. Inconsistencies in the amount of cells per well are normalised by using the spatial uniformity correction of the FLIPR software. The mean of replicated temporal data (n=3-5) is calculated and used for graphical representation. For the evaluation of the pharmacology, the calcium changes in response to different concentrations of agonist or antagonist are determined using a maximum minus minimum (MaxMin) calculation.
(§2) All responses (RFU-values) are determined as percentage of control (=maximum response). EC50 and IC50 are calculated according the logistic equation using GraFit 5.0 (Erithacus Software, GB) or Prism 4.0 (GraphPad Software, USA).

The next data set has as its target T2, mGluR5 receptors (Rattus norvegicus, UniProt P31424).
T2 construct: endogenous in cells; host or cells: primary astrocytes from neocortex of Sprague-Dawley rat pups (2-4 d old)
Description: Cytosolic calcium studies with astrocytes (astrocyte culture test, FLIPR). The format is cell-based. To be noted: rat primary astrocytes; L-quisqualate 100 nM; read-out: mGluR5_FLIPR_r_rpA— IC50. On the procedure:
Primary astrocyte cultures are prepared from cortices of newborn rats as described by Booher and Sensenbrenner (1972, Neurobiology 2(3):97-105). Briefly, Sprague-Dawley rat pups (2-4 d old) are decapitated and neocortices are dissected, disintegrated with a nylon filter (pore size 80 μm) and carefully triturated. The cell suspension is plated on poly-D-lysine pre-coated flasks (Costar, Netherlands) and cultivated in Dulbecco's Modified Eagle's Medium (DMEM, Invitrogen, Germany) supplemented with 10% foetal calf serum (FCS, Sigma, Germany), 4 mM glutamine and 50 μg/ml gentamycin (both Biochrom, Germany) at 37° C. in a humidified atmosphere of 5% CO2/95% air for 7 d with exchanging the medium at day 2 and 6.
After 7 days in vitro (DIV), cells are shaken overnight at 250 rpm to remove oligodendrocytes and microglia. The next day, astrocytes are rinsed twice with CMF-PBS (calcium- and magnesium-free phosphate buffered saline, Biochrom, Germany), trypsinized and subplated on poly-D-lysine pre-coated 96-well plates (Greiner, Germany) at a density of 40,000 cells/well. 24 h after establishing the secondary culture the astrocytes are rinsed with PBS^++ (phosphate buffered saline, Biochrom, Germany) and fed with astrocyte-defined medium (ADM) consisting of DMEM containing 1×G5-supplement (Invitrogen, Germany), 0.5 μg/ml heparan sulfate, and 1.5 μg/ml fibronectin (both Sigma, Germany) (Miller et al., (1993) Brain Res. 618(1):175-8). 3 d later the medium is exchanged and the cells incubated for another 2-3 d, so that at the time of experiments astrocytes are 14-15 DIV.
Cytosolic Calcium Studies with Astrocytes:
The increase of cytosolic calcium after stimulation with the mGluR5 agonist L-quisqualate is measured using a fluorometric imaging plate reader (FLIPR) and the Ca-Kit (both Molecular Devices). Prior to addition of agonist or antagonist the medium is aspirated and cells are loaded for 2 h at RT with 150 μl of loading buffer consisting of Ca-sensitive dye reconstituted in sodium chloride (123 mM), potassium chloride (5.4 mM), magnesium chloride (0.8 mM), calcium chloride (1.8 mM), D-glucose (15 mM), and HEPES (20 mM), pH 7.3. Subsequently, plates are transferred to FLIPR to detect calcium increase with the addition of L-quisqualate (100 nM) measured as relative fluorescence units (RFU). If antagonists are tested, these compounds are pre-incubated for 10 minutes at RT before addition of the respective agonist.
as §1, §2

Data set [2] addresses T3, transmembrane allosteric modulatory sites of mGluR5 receptors (Rattus norvegicus, UniProt P31424).
T3 construct: from tissue; host or cells: cortex of male Sprague-Dawley rats, membrane preparation
Description: [3H]-MPEP binding assay in rat cortical membranes. The following applies: displacement of radioligand, read-out: mGluR5_M_MPEP_r_CTX IC50. On the procedure:
Binding Assays for the Characterization of mGluR5 Antagonists
Preparation of Rat Cortical Membranes:
Male Sprague-Dawley rats (200-250 g) are decapitated and their brains are removed rapidly. The cortex is dissected and homogenized in 20 volumes of ice-cold 0.32 M sucrose using a glass-Teflon homogenizer. The homogenate is centrifuged at 1000×g for 10 minutes. The pellet is discarded and the supernatant centrifuged at 20,000×g for 20 minutes. The resulting pellet is re-suspended in 20 volumes of distilled water and centrifuged for 20 minutes at 8000×g. Then the supernatant and the buffy coat are centrifuged at 48,000×g for 20 minutes in the presence of 50 mM Tris-HCl, pH 8.0. The pellet is then re-suspended and centrifuged two to three more times at 48,000×g for 20 minutes in the presence of 50 mM Tris-HCl, pH 8.0. All centrifugation steps are carried out at 4° C. After resuspension in 5 volumes of 50 mM Tris-HCl, pH 8.0 the membrane suspension is frozen rapidly at −80° C.
On the day of assay the membranes are thawed and washed four times by resuspension in 50 mM Tris-HCl, pH 8.0 and centrifugation at 48,000×g for 20 minutes and finally re-suspended in 50 mM Tris-HCl, pH 7.4. The amount of protein in the final membrane preparation (500-700 μg/ml) is determined according to the method of Lowry (Lowry O. H. et al. 1951. J. Biol. Chem. 193, 256-275).
The incubations are continued at room temperature for 60 minutes (equilibrium is achieved under the conditions used). […] Incubations are terminated using a Millipore filter system. The samples are rinsed twice with 4 ml of ice-cold assay buffer over glass fibre filters (Schleicher & Schuell, Germany) under a constant vacuum. Following separation and rinse, the filters are placed into scintillation liquid (5 ml Ultima Gold, Perkin Elmer, Germany) and radioactivity retained on the filters is determined with a conventional liquid scintillation counter (Can berra Packard, Germany).

For data set [3], the target named is T1, metabotropic glutamate receptor (mGluR5). The data set can be described thus: Activity as mGluR5 modulator (test not specified). The following applies: for activity as metabotropic glutamate receptor (mGluR5) modulator: prior-art compounds.

T1 sequence (P41594 21-1212): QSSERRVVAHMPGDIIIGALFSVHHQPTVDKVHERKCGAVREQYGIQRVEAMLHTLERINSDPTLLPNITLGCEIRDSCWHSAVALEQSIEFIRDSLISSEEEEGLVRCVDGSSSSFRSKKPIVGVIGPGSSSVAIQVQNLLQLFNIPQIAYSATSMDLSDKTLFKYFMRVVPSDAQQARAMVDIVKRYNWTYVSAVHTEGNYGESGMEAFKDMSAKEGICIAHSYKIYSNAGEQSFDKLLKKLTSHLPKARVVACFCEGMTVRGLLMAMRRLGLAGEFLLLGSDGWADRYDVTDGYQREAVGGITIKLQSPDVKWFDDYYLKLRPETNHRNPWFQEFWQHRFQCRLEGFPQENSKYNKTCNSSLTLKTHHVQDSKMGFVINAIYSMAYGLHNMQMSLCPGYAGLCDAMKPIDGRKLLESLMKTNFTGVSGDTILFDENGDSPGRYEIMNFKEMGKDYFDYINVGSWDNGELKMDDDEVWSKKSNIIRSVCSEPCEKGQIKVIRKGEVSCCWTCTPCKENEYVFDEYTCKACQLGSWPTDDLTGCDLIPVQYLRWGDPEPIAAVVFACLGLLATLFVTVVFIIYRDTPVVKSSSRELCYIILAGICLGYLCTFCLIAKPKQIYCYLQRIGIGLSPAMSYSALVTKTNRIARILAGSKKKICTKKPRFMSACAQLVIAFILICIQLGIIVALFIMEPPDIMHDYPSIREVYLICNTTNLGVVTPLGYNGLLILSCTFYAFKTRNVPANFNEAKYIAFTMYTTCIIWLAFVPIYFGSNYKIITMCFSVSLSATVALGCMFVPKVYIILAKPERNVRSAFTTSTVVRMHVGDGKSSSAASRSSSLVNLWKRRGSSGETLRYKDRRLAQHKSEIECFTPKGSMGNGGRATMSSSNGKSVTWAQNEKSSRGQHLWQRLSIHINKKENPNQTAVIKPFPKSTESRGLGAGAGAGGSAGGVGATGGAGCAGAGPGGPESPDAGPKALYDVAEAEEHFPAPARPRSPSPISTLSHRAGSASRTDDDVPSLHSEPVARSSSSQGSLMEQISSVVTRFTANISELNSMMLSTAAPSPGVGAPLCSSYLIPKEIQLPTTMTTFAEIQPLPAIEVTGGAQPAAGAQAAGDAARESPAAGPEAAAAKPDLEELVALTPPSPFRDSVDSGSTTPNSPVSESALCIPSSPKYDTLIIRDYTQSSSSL
T2 sequence (P31424 21-1203): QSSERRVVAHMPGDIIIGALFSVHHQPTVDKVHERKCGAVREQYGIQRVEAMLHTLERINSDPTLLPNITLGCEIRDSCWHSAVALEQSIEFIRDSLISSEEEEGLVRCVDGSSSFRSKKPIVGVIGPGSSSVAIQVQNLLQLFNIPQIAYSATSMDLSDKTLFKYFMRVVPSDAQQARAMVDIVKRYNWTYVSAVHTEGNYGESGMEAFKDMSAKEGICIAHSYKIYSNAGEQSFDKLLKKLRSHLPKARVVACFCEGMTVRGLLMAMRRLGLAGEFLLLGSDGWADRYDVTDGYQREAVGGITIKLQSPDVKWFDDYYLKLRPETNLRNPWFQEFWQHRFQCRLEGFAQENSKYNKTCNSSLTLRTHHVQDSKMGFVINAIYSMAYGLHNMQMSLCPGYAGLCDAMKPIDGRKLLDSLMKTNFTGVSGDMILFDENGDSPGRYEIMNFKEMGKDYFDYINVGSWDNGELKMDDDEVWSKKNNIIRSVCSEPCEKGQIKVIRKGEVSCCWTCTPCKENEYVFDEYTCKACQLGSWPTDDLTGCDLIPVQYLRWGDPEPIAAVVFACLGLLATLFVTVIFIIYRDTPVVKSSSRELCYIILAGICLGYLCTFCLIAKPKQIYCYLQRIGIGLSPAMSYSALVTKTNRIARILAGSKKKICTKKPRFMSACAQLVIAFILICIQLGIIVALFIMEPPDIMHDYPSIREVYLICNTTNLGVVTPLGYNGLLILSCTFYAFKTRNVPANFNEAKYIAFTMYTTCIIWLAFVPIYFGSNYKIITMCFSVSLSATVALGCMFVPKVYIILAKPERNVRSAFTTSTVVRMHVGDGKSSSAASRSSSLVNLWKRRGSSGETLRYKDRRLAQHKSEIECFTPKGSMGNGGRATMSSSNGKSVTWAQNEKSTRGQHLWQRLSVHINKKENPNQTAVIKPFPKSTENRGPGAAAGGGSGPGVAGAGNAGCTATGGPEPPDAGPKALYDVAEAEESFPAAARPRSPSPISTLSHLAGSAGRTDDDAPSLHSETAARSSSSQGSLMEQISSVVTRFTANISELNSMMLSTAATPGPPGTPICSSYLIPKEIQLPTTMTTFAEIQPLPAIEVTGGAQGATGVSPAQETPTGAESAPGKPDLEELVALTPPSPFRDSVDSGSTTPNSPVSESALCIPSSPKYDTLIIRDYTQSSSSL
T3 sequence (P31424 21-1203): as above

The pIC50 is −log10 of the IC50, conventionally taken in molar units. For the compound `CC1c2ccoc2CCN1C(=O)c1cc2ncc(Br)cn2n1` (stereo not shown) [Example 28, 6-Bromo-2-[(4-methyl-6,7-dihydrofuro[3,2-c]pyridin-5(4H)-yl)carbonyl]pyrazolo[1,5-a]pyrimidine], the pIC50 in data set [1] was 6.97; at mGluR5 receptors it was 7.09; in data set [2] it was 6.67.

`Cc1cc2c(s1)CCN(C(=O)c1cc3ncc(Br)cn3n1)C2C` (stereo not shown) [Example 15, (6-Bromo-pyrazolo[1,5-a]pyrimidin-2-yl)-(2,4-dimethyl-6,7-dihydro-4H-thieno[3,2-c]pyridin-5-yl)-methanone]: the pIC50 in data set [1] is 6.98; on mGluR5 receptors, 7.64; in data set [2], 7.92.

Turning to `Cc1cc2c(s1)CCN(C(=O)c1cc3ncc(Cl)cn3n1)C2C` (stereo not shown) [Example 16, (6-Chloro-pyrazolo[1,5-a]pyrimidin-2-yl)-(2,4-dimethyl-6,7-dihydro-4H-thieno[3,2-c]pyridin-5-yl)-methanone], the pIC50 in data set [1] is 7.03; on mGluR5 receptors, 7.68; in data set [2], 7.70.

`O=C(c1cc2ncc(Br)cn2n1)N1CCCCC1` [Example B308, (6-Bromopyrazolo[1,5-a]pyrimidin-2-yl)-piperidin-1-yl-methanone]: in data set [3], the “activity as metabotropic glutamate receptor (mGluR5) modulator” value (from here on “activity”) was “no particular activity”.

What is called melting point is the temperature of the solid-liquid transition. Take `C[C@@H]1c2ccsc2CCN1C(=O)c1cc2ncc(Br)cn2n1` [Example 42, (6-Bromo-pyrazolo[1,5-a]pyrimidin-2-yl)-(4-methyl-6,7-dihydro-4H-thieno[3,2-c]pyridin-5-yl)-methanone]: the melting point is 142 to 144 °C. In data set [1], the pIC50 was 7.63. In addition, on mGluR5 receptors, the pIC50 was 7.70. In addition, in data set [2], the pIC50 is 8.00.

On to `CCC1c2ccsc2CCN1C(=O)c1cc2ncc(Cl)cn2n1` (stereo not shown) [Example 10, (6-Chloro-pyrazolo[1,5-a]pyrimidin-2-yl)-(4-ethyl-6,7-dihydro-4H-thieno[3,2-c]pyridin-5-yl)-methanone], for which the pIC50 is 7.09 in data set [1], 7.68 on mGluR5 receptors and 6.82 in data set [2].

Take `CC1c2ccsc2CCN1C(=O)c1cc2ncc(Br)cn2n1` (stereo not shown) [Example 1, 6-Bromo-2-[(4-methyl-6,7-dihydrothieno[3,2-c]pyridin-5(4H)-yl)carbonyl]pyrazolo[1,5-a]pyrimidine]: the pIC50 in data set [1] is 7.09; on mGluR5 receptors, 7.64; in data set [2] it was 7.10.

Consider `CC1c2ccsc2CCN1C(=O)c1cc2ncc(Cl)cn2n1` (stereo not shown) [Example 2, (6-Chloro-pyrazolo[1,5-a]pyrimidin-2-yl)-(4-methyl-6,7-dihydro-4H-thieno[3,2-c]pyridin-5-yl)-methanone], for which the results for the negative logarithm of the IC50 (pIC50) (in data set [1]; at mGluR5 receptors; in data set [2]) were 7.36, 7.62 and 7.26, respectively.

In the case of `O=C(c1cc2ncc(Br)cn2n1)N1CCOCC1` [Example B310, (6-Bromopyrazolo[1,5-a]pyrimidin-2-yl)-morpholin-4-yl-methanone], the “activity” value in data set [3] is “no particular activity”.

Regarding `O=C(c1cc2ncc(Br)cn2n1)N1CCc2ccccc2C1` [M, (6-Bromo-pyrazolo[1,5-a]pyrimidin-2-yl)-(1,2,3,4-tetrahydro-isoquinolin-2-yl)-methanon], the selectivity result in data set [3] (prior-art compound) is “not selective”. Moreover, the “activity” value in data set [3] is “only a limited activity”.

For `CCC1c2ccsc2CCN1C(=O)c1cc2ncc(Br)cn2n1` (stereo not shown) [Example 9, (6-Bromo-pyrazolo[1,5-a]pyrimidin-2-yl)-(4-ethyl-6,7-dihydro-4H-thieno[3,2-c]pyridin-5-yl)-methanone], the negative-log IC50 (pIC50) was 7.20 in data set [1], 7.68 at mGluR5 receptors and 6.93 in data set [2].

The compound `C[C@H]1c2ccsc2CCN1C(=O)c1cc2ncc(Br)cn2n1` [Example 41, (6-Bromo-pyrazolo[1,5-a]pyrimidin-2-yl)-(4-methyl-6,7-dihydro-4H-thieno[3,2-c]pyridin-5-yl)-methanone] gave a melting point of 136 to 137 °C. For the same compound, the pIC50 in data set [1] was 5.35.

As for `Cc1cc2c(o1)CCN(C(=O)c1cc3ncc(Br)cn3n1)C2C` (stereo not shown) [Example 44, (6-Bromo-pyrazolo[1,5-a]pyrimidin-2-yl)-(2,4-dimethyl-6,7-dihydro-4H-furo[3,2-c]pyridin-5-yl)-methanone], the pIC50 in data set [1] is 6.83; at mGluR5 receptors, 7.44; in data set [2] it was 7.77.

For `CC1c2ccoc2CCN1C(=O)c1cc2ncc(Cl)cn2n1` (stereo not shown) [Example 29, 6-Chloro-2-[(4-methyl-6,7-dihydrofuro[3,2-c]pyridin-5(4H)-yl)carbonyl]pyrazolo[1,5-a]pyrimidine], the results for the negative-log IC50 (pIC50) (in data set [1]; on mGluR5 receptors; in data set [2]) were 6.69, 7.19 and 6.96, respectively.
